From paper PMC12777571, “The molecular basis of intrinsic resistance to azoles in Rhizopus arrhizus” (Antimicrobial Agents and Chemotherapy, 2025)
Read-outs that look alike come from different tables or passages of the source.

What was measured:
[1] = target: T1, RaCYP51-F5 + RaCPR (strain Y-F5/CPR and variants) (Rhizopus delemar, UniProt I1CTV4, A291V); experiment: inhibition of BOMCC hydrolysis in crude membranes, fluorescence; assay type: biochemical
T1 construct: gene RO3G_16595; full-length, codon-optimized, C-terminal GGR linker and 6xHis; co-expressed with 6xHis RaCPR in S. cerevisiae ADΔΔ deleted of native ERG11; crude membranes; ~60 kDa; with NADPH--cytochrome P450 reductase
T1 sequence (I1CTV4 whole entry, stated change not applied): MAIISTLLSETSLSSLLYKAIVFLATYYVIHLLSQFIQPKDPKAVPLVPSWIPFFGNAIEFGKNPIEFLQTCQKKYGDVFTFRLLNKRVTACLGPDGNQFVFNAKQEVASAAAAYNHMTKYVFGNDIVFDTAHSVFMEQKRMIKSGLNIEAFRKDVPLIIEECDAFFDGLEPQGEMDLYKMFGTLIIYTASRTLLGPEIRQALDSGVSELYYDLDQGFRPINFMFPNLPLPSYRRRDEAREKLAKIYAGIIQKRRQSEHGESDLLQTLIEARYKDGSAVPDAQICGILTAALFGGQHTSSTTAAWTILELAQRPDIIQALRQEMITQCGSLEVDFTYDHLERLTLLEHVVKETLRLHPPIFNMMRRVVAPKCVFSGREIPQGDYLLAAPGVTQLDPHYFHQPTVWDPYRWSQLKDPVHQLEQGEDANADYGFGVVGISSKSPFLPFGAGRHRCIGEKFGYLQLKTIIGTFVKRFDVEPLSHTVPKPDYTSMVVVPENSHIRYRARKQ
T1 sequence (I1CM61 whole entry, stated change not applied, further chain): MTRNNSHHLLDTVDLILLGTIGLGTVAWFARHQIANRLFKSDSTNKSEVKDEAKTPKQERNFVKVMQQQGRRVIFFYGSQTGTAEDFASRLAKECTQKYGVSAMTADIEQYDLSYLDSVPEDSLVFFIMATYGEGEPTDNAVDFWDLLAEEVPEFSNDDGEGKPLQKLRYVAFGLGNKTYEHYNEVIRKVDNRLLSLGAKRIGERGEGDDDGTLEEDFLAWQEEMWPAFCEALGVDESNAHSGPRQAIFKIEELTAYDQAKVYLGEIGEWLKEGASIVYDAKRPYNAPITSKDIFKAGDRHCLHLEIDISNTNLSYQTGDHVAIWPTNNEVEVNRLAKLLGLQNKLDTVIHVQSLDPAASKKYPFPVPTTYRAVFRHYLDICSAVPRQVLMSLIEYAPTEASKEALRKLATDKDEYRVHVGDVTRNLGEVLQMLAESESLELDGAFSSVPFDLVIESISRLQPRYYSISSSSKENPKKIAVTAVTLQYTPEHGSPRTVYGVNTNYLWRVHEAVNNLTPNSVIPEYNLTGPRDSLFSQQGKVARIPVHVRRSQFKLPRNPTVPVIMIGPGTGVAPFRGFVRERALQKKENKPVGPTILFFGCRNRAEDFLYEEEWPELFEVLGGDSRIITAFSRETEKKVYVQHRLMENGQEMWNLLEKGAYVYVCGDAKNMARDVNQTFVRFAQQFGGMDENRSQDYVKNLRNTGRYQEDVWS

[2] = target: T2, RaCYP51-F1 + RaCPR (strain Y-F1/CPR) (Rhizopus delemar, UniProt I1CF49); experiment: as above; assay type: biochemical
T2 construct: gene RO3G_11790; full-length, codon-optimized, C-terminal GGR linker and 6xHis; co-expressed with 6xHis RaCPR in S. cerevisiae ADΔΔ deleted of native ERG11; crude membranes; ~60 kDa; with NADPH--cytochrome P450 reductase
T2 sequence (I1CF49 entry or part of it): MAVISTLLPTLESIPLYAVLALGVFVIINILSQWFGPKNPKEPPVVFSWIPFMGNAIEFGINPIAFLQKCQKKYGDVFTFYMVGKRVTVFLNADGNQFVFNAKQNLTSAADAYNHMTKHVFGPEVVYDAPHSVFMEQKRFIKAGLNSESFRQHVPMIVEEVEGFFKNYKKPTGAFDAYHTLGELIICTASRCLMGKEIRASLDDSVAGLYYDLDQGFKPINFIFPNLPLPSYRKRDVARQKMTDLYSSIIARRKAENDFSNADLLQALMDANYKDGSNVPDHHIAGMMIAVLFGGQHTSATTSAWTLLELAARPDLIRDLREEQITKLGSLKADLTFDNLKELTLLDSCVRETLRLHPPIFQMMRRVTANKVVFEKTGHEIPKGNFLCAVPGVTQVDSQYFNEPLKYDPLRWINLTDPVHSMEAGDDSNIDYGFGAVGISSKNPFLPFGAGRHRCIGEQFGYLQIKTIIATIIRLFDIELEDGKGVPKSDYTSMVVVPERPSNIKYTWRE
T2 sequence (I1CM61 entry or part of it, further chain): as the sequence (I1CM61 whole entry, stated change not applied, further chain) above
From the text: inhibition of BOMCC hydrolysis in crude membranes, fluorescence on RaCYP51-F1 + RaCPR (strain Y-F1/CPR)

[3] = target: T3, RaCYP51-F5 + RaCPR (strain Y-F5/CPR and variants) (Rhizopus delemar, UniProt I1CTV4); experiment: biochemical
T3 construct: gene RO3G_16595
From the text: inhibition of BOMCC hydrolysis in crude membranes, fluorescence on RaCYP51-F5 + RaCPR (strain Y-F5/CPR and variants)

[4] = target: T4, RaCYP51-F5 + RaCPR (strain Y-F5/CPR and variants) (Rhizopus delemar, UniProt I1CTV4, F129Y); experiment: inhibition of BOMCC hydrolysis in crude membranes, fluorescence; assay type: biochemical
T4 construct: gene RO3G_16595; full-length, codon-optimized, C-terminal GGR linker and 6xHis; co-expressed with 6xHis RaCPR in S. cerevisiae ADΔΔ deleted of native ERG11; crude membranes; ~60 kDa; with NADPH--cytochrome P450 reductase
T4 sequence (I1CM61 whole entry, stated change not applied): as the sequence (I1CM61 whole entry, stated change not applied, further chain) above
T4 sequence (I1CTV4 whole entry, stated change not applied): as the sequence (I1CTV4 whole entry, stated change not applied) above

[5] = target: T5, partially purified RaCYP51-F5 (Rhizopus delemar, UniProt I1CTV4); experiment: type II difference spectrum (Soret red shift); assay type: binding; details: 1.0 µM enzyme, 40 µM azole (saturating); heme iron coordination
T5 construct: gene RO3G_16595; full-length, codon-optimized, C-terminal GGR linker and 6xHis; expressed in S. cerevisiae ADΔΔ; Ni-NTA purified from n-decyl-β-D-maltoside extract; ~60 kDa

[6] = target: T6, RaCYP51-F5 + RaCPR (strain Y-F5/CPR and variants) (Rhizopus delemar, UniProt I1CTV4, A291V/F129Y); experiment: inhibition of BOMCC hydrolysis in crude membranes, fluorescence; assay type: biochemical
T6 construct: gene RO3G_16595; full-length, codon-optimized, C-terminal GGR linker and 6xHis; co-expressed with 6xHis RaCPR in S. cerevisiae ADΔΔ deleted of native ERG11; crude membranes; ~60 kDa; with NADPH--cytochrome P450 reductase
T6 sequence (I1CTV4 whole entry, stated change not applied): as above
T6 sequence (I1CM61 whole entry, stated change not applied, further chain): as the sequence (I1CM61 whole entry, stated change not applied, further chain) above

| Structure (SMILES) | IC50 [1] [nM] | IC50 ([2]; read-out: Posaconazole IC50) [nM] | IC50 [3] [nM] | IC50 [4] [nM] | type II difference spectrum (Soret red shift) [5] | IC50 [6] [nM] | IC50 ([2]; read-out: Voriconazole IC50) [nM] |
| --- | --- | --- | --- | --- | --- | --- | --- |
| CC[C@@H]([C@H](C)O)n1ncn(-c2ccc(N3CCN(c4ccc(OC[C@@H]5CO[C@@](Cn6cncn6)(c6ccc(F)cc6F)C5)cc4)CC3)cc2)c1=O [posaconazole] | 55 ± 7 | 21 ± 11 | 56 ± 28 | 75 ± 35 | bound posaconazole or voriconazole upon exposure to saturating levels of these drugs | 63 | – |
| C[C@@H](c1ncncc1F)[C@](O)(Cn1cncn1)c1ccc(F)cc1F [voriconazole] | 500 | – | > 1000 | 140 ± 57 | bound posaconazole or voriconazole upon exposure to saturating levels of these drugs | 60 ± 14 | 100 ± 70 |
